Test results reported in the NIST ThermoML archive (doi:10.1016/j.jct.2011.08.016).

Test: xn = mol fraction of the nth substance listed
Settings: Liquid, Vibrating tube method

CCCCCCCCCC [decane] + CCCCCCCC
Settings	mass density [kg/m3]
363.03 K, 7000 kPa, x2 = 0.0616	682.5
363.03 K, 8000 kPa, x2 = 0.0616	683.6
363.03 K, 9000 kPa, x2 = 0.0616	684.68
363.03 K, 10000 kPa, x2 = 0.0616	685.7
363.03 K, 10990 kPa, x2 = 0.0616	686.75
363.03 K, 12000 kPa, x2 = 0.0616	687.8
363.03 K, 13000 kPa, x2 = 0.0616	688.75
363.03 K, 14000 kPa, x2 = 0.0616	689.77
363.03 K, 15000 kPa, x2 = 0.0616	690.77
363.03 K, 16000 kPa, x2 = 0.0616	691.73
363.03 K, 17000 kPa, x2 = 0.0616	692.68
363.03 K, 18000 kPa, x2 = 0.0616	693.63
363.03 K, 19000 kPa, x2 = 0.0616	694.55
363.03 K, 20000 kPa, x2 = 0.0616	695.46
363.03 K, 21000 kPa, x2 = 0.0616	696.37
363.03 K, 22000 kPa, x2 = 0.0616	697.23
363.03 K, 23000 kPa, x2 = 0.0616	698.12
363.03 K, 24000 kPa, x2 = 0.0616	699
363.03 K, 25000 kPa, x2 = 0.0616	699.81
363.05 K, 1000 kPa, x2 = 0.2801	670.18
363.05 K, 2000 kPa, x2 = 0.2801	671.39
363.05 K, 3000 kPa, x2 = 0.2801	672.48
363.05 K, 4000 kPa, x2 = 0.2801	673.67
363.05 K, 5000 kPa, x2 = 0.2801	674.81
363.05 K, 6000 kPa, x2 = 0.2801	675.97
363.05 K, 7000 kPa, x2 = 0.2801	677.07
363.05 K, 8000 kPa, x2 = 0.2801	678.19
363.05 K, 9000 kPa, x2 = 0.2801	679.28
363.05 K, 10000 kPa, x2 = 0.2801	680.35
363.05 K, 10990 kPa, x2 = 0.2801	681.42
363.05 K, 12000 kPa, x2 = 0.2801	682.49
363.05 K, 13000 kPa, x2 = 0.2801	683.53
363.05 K, 14000 kPa, x2 = 0.2801	684.56
363.05 K, 15000 kPa, x2 = 0.2801	685.57
363.05 K, 16000 kPa, x2 = 0.2801	686.57
363.05 K, 17000 kPa, x2 = 0.2801	687.56
363.05 K, 18000 kPa, x2 = 0.2801	688.51
363.05 K, 19000 kPa, x2 = 0.2801	689.47
363.05 K, 20000 kPa, x2 = 0.2801	690.38
363.05 K, 21000 kPa, x2 = 0.2801	691.33
363.05 K, 22000 kPa, x2 = 0.2801	692.19
363.05 K, 23000 kPa, x2 = 0.2801	693.06
363.05 K, 24000 kPa, x2 = 0.2801	693.94
363.05 K, 25000 kPa, x2 = 0.2801	694.78
363.07 K, 1000 kPa, x2 = 0.7736	654.79
363.07 K, 1000 kPa, x2 = 0.9623	647.67
363.07 K, 2000 kPa, x2 = 0.7736	656.13
363.07 K, 2000 kPa, x2 = 0.9623	649.03
363.07 K, 3000 kPa, x2 = 0.7736	657.39
363.07 K, 3000 kPa, x2 = 0.9623	650.38
363.07 K, 4000 kPa, x2 = 0.7736	658.68
363.07 K, 4000 kPa, x2 = 0.9623	651.7
363.07 K, 5000 kPa, x2 = 0.7736	659.92
363.07 K, 5000 kPa, x2 = 0.9623	652.98
363.07 K, 6000 kPa, x2 = 0.7736	661.18
363.07 K, 6000 kPa, x2 = 0.9623	654.25
363.07 K, 7000 kPa, x2 = 0.7736	662.38
363.07 K, 7000 kPa, x2 = 0.9623	655.52
363.07 K, 8000 kPa, x2 = 0.7736	663.57
363.07 K, 8000 kPa, x2 = 0.9623	656.76
363.07 K, 9000 kPa, x2 = 0.7736	664.75
363.07 K, 9000 kPa, x2 = 0.9623	658
363.07 K, 10000 kPa, x2 = 0.7736	665.92
363.07 K, 10000 kPa, x2 = 0.9623	659.23
363.07 K, 10990 kPa, x2 = 0.7736	667.06
363.07 K, 10990 kPa, x2 = 0.9623	660.42
363.07 K, 12000 kPa, x2 = 0.7736	668.19
363.07 K, 12000 kPa, x2 = 0.9623	661.58
363.07 K, 13000 kPa, x2 = 0.7736	669.32
363.07 K, 13000 kPa, x2 = 0.9623	662.75
363.07 K, 14000 kPa, x2 = 0.7736	670.41
363.07 K, 14000 kPa, x2 = 0.9623	663.87
363.07 K, 15000 kPa, x2 = 0.7736	671.49
363.07 K, 15000 kPa, x2 = 0.9623	664.99
363.07 K, 16000 kPa, x2 = 0.7736	672.56
363.07 K, 16000 kPa, x2 = 0.9623	666.07
363.07 K, 17000 kPa, x2 = 0.7736	673.6
363.07 K, 17000 kPa, x2 = 0.9623	667.17
363.07 K, 18000 kPa, x2 = 0.7736	674.63
363.07 K, 18000 kPa, x2 = 0.9623	668.2
363.07 K, 19000 kPa, x2 = 0.7736	675.61
363.07 K, 19000 kPa, x2 = 0.9623	669.26
363.07 K, 20000 kPa, x2 = 0.7736	676.63
363.07 K, 20000 kPa, x2 = 0.9623	670.29
363.07 K, 21000 kPa, x2 = 0.7736	677.57
363.07 K, 21000 kPa, x2 = 0.9623	671.3
363.07 K, 22000 kPa, x2 = 0.7736	678.47
363.07 K, 22000 kPa, x2 = 0.9623	672.27
363.07 K, 23000 kPa, x2 = 0.7736	679.43
363.07 K, 23000 kPa, x2 = 0.9623	673.14
363.07 K, 24000 kPa, x2 = 0.7736	680.34
363.07 K, 24000 kPa, x2 = 0.9623	674.08
363.07 K, 25000 kPa, x2 = 0.7736	681.28
363.07 K, 25000 kPa, x2 = 0.9623	674.98
